Source: PMC6609550, “Blockade of the forward Na^+/Ca^2+ exchanger suppresses the growth of glioblastoma cells through Ca^2+‐mediated cell death” (British Journal of Pharmacology, 2019)

What was measured:
Type in all cases: cell-based, Human
U87 cells [1] = experiment: Cell cycle assay (PI staining, flow cytometry) of U87 cells; details: bepridil 25 μM 6–24 hr, CB‐DMB 3.5 μM 6–24 hr, KB‐R7943 25 μM 18 hr, BAPTA‐AM 10 μM 18 hr, CC‐930 10 μM, PD169316 10 μM 18 hr
Description: (§1) U87 cells were seeded in six‐well plates (Corning, Corning, NY, USA) with 1 × 10^6 cells per well and treated with NCX blockers, BAPTA‐AM, or MAPK inhibitors. Drug treatment was performed by the person who is blinded to the experimental groups. After treatment, cells were harvested in 15‐ml tubes and washed with cold sterile PBS. After being centrifuged, cells were fixed with 70% ethanol […] at 4°C for at least 1 hr. For propidium iodide (PI) staining, cells were washed one time with PBS and then were treated with ribonuclease A (RNase; 100 μg·ml^−1) for 30 min. PI (10 μg·ml^−1) was added, and stained cells were kept in the dark at 4°C until analysis. The number of cells analysed for each sample was 10,000 events. FACS analysis was performed using the Coulter CytoFlexS flow cytometer (Beckman Coulter, CA, USA), and the percentage of cells in the G0/G1, S, and G2/M phases was determined using cell cycle analysis software, ModFit LT 5.0 (Verity Software House, Topsham, ME, USA). For the apoptosis assay, cells were harvested and washed twice with cold PBS and resuspended at a density of 1 × 10^6 cells·ml^−1 in 100 μl of binding buffer containing 5 μl of Annexin V–FITC and 5 μl of PI working solution (100 μg·ml^−1). After incubation at room temperature for 15 min in the dark, 400 μl of binding buffer was added to each sample. Apoptosis was analysed by Coulter CytoFlexS flow cytometer (Beckman Coulter) for at least 10,000 events, and data were analysed with the software, CyExpert 2.0 (Beckman Coulter).

reverse NCX = experiment: Whole-cell patch-clamp recording of reverse-mode NCX currents in U87 cells; details: reverse NCX current measured at +50 mV, mean ± SEM, n = 4, read-out: IC50, blocking reverse NCX (currents)
Description: Whole‐cell patch‐clamp recording was performed using a Multiclamp 700B amplifier (Molecular Devices, Foster City, CA, USA) at room temperature. Voltage protocols were provided and current recorded via a DigiData‐1550B interface (Molecular Devices) controlled by pClamp 10 Software (Molecular Devices, RRID:SCR_011323). […] Internal solution consisted of (in mM): 120 CsCl, 20 NaCl, 2 MgCl2, 13 CaCl2, 2 Na2ATP, 20 BAPTA, and 10 HEPES at a pH 7.2. […] Series resistance was compensated by 75–85%. Linear leak and residual capacitance currents were subtracted online using a P/4 protocol of the pClamp 10. For the recording of the membrane currents related to the NCX, cells were held at −50 mV and depolarized to +60 mV, and then a voltage ramp starting from +60 to −120 mV was applied for 1,000 ms before returning back to −50 mV. The reverse and forward NCX currents were measured at +50 and −110 mV holding potentials respectively (Molinaro et al., 2008; Rahman, Inman, Kiss, & Janssen, 2012; Song, Chen, & Yu, 2014). Data were filtered at 3 KHz and digitized at sampling rates of 20 KHz. For drug application, cells were perfused with a VC‐6 Six Channel Perfusion Valve Control Systems (Warner Instruments, Greenwich, CT, USA) connected to a gravity‐fed perfusion systems.
Data are expressed as mean ± SEM and analysed by Prism 7 software, La Jolla, CA (GraphPad Prism, RRID:SCR_002798). The data and statistical analysis comply with the recommendations of the British Journal of Pharmacology on experimental design and analysis in pharmacology. Concentrations of the NCX blockers (IC50) exerting half‐maximal inhibition of NCX currents were obtained by fitting the concentration–response with the equation: I/I0*100%=Bottom+Top−Bottom/1+10^((^Log^IC50−C)*n) , where I 0 and I are current amplitudes measured in control and in the presence of NCX blockers, C is the logarithm of concentration, and n is the Hill coefficient. The statistical difference between two independent groups was analysed by Student's parametric unpaired t test. And the original data of more than two groups were assessed by the parametric one‐way ANOVA followed by a Tukey's post hoc test. The data for cell viability and Western blot were usually normalized to the control group, and were thus analysed by the non‐parametric Kruskal–Wallis test followed by a Dunn's post hoc test. Differences were considered to be significant when P < .05. Post hoc tests were conducted when the F value achieved the necessary level (P < .05) and there was no significant variance inhomogeneity.
We characterized the membrane currents associated with NCX activity in glioblastoma cells using whole‐cell patch‐clamp recording. […] The NCX current in its reverse mode (Ca^2+ entry) was measured at +50, and the forward‐mode current (Ca^2+ exit) was measured at −110 mV. The Ni^2+ (10 mM) was employed to inhibit and identify the NCX currents in its either reverse or forward mode as previously reported (Maack, Ganesan, Sidor, & O'Rourke, 2005).

U87 cells [2] = experiment: Cell viability assay (Cell Counting Kit-8), U87; details: for IC50: 72 hr, CCK-8, mean ± SEM
Description: Cell viability was determined by using a Cell Counting Kit‐8 (Dojindo, Japan). Briefly, cells were harvested from flasks and plated in 96‐well cell culture plates at 5 × 10^3 per well and cultured overnight. […] Control cells were treated with cell culture medium and measured at the same time point as treatment groups. CCK‐8 solution (10 μl) was added to each well of the 96‐well plates, and the cultures were incubated for 30 min at 37°C. Absorbance at 450 nm was measured using an automatic microplate reader (Molecular Devices, San Jose, CA, USA).
Figure 2 Effect of the Na^+/Ca^2+ exchanger (NCX) blockers on viability of human glioblastoma cell lines. (a, b) Viability of adult glioblastoma cell lines (U87 and U251) after exposure to NCX blockers bepridil, KB‐R7943, SEA0400, SN‐6, or YM244769 at 0–100 μM for 72 hr. n = 5 independent tests per group. (c) Viability of paediatric glioblastoma cell line SF188 after 72‐hr incubation with the same NCX blockers at 0–100 μM. n = 5 independent tests per group. (d) For U87, U251, and SF188 cell lines, concentration of the NCX blockers required to produce half maximal inhibition (IC50: μM, mean ± SEM) of cell viability.

U87 cells [3] = experiment: Annexin V–FITC/PI apoptosis assay of U87 cells; details: bepridil 25 μM 6–48 hr, CB‐DMB 3.5 μM 6–48 hr, KB‐R7943 25 μM 20 hr, BAPTA‐AM 10 μM 18 hr, CC‐930 10 μM, PD169316 10 μM
Description: as §1

| IC50 (U87 cells [2]) [µM] | Compound | Effect on cell cycle distribution, compound alone (U87 cells [1]) | IC50 (reverse NCX) [µM] | Effect on growth (viability) of U87 cells (U87 cells [2]; 25 μM, 48 hr) | IC50 (U87 cells [2]; Homo sapiens, U-87 MG) [µM] | Effect on apoptosis (Annexin V+ cells), compound alone (U87 cells [3]) |
| --- | --- | --- | --- | --- | --- | --- |
|  | CC(C)COCC(CN(Cc1ccccc1)c1ccccc1)N1CCCC1 (stereo not drawn) [Bepridil, N‐benzyl‐N‐(3‐isobutoxy‐2‐pyrrolidin‐1‐yl‐propyl)aniline] | reduced the cell fraction in S phase and increased cells in G0/G1 phase in a time‐dependent manner | 15.6 ± 1.1 | markedly suppressed growth | 18.6 ± 1.1 | time‐dependent increase of apoptotic (Annexin V^+) cells |
| 26.6 ± 1.4 | CS(=O)(=O)O.N=C(N)SCCc1ccc(OCc2ccc([N+](=O)[O-])cc2)cc1 [KB‐R7943, 2‐[4‐[(4‐nitrophenyl)methoxy]phenyl]ethyl ester carbamimidothioic acid methanesulfonate] | caused G0/G1 arrest and apoptosis | 14.3 ± 1.2 |  |  | caused G0/G1 arrest and apoptosis |
